# Data taken from US20040086901A1, “Database for analyzing gene function and method of analyzing gene function by dspa” (priority 2000, published 2004).
# Non-standard residues stand in square brackets, D forms with d. Residues, ends and D or L forms follow the SMILES beside them. Nle = CCCC[C@H](N)C(=O)O
# Key:
# Assay type in all cases: cell-based, mouse
# [1] = tested on: NIH3T3 cells overexpressing p53(wt); test: MTT cell viability, p53(wt) overexpressing cells vs parental line; conditions: p53(wt) high-expressing cells / parental cell line, 3 to 4 days
# Procedure: (§1) With regard to the function-known genes, the genes shown in the left column of Table 2 were used. With regard to the drugs, those shown in Table 1 were dissolved in DMSO to an extent of 100-fold of the maximum concentration for the search of the drugs and used. With regard to the cells, incubated NIH3T3 or ras-NIH3T3 cells were used.
# (§2) Full-length cDNA of each function-known genes was incorporated into an expression vector (pRc-CMV, etc.) and transfected into NIH3T3 cells by a common method. Transformed cells were isolated using the resistance to G-418 as an index and the expression of the transfected gene in each cell was investigated by Western blotting method to select a highly expressing line.
# (§3) Cell viabilities were measured according to the following procedures.
# (§4) 1) From the 2nd to the 11th rows of a 96-well plate were filled with DMEM (50 μl). The 12th row was filled with 100 μl of DMEM.
# (§5) 2) The 1st row was filled with 98 μl of DMEM.
# (§6) 3) Drugs (2 μl each) were added into the 1st row.
# (§7) 4) Continuous double-dilution was conducted from the 1st to the 9th rows. Fifty μl were taken out from the 9th row and discarded. The plate was preserved in a CO2 incubator.
# (§8) 5) Cells (each high-expressing cells and the parental cell line) were detached from the medium using a trypsin solution, suspended in 10% CS-DMEM and transferred to a test tube and cell numbers (cell/ml) were counted.
# (§9) 6) The cells were diluted to a concentration of 1×10^5 cells/ml, and 50 μl of the cell suspension were added to the 1st to the 11th rows of the plate followed by gently stirring.
# (§10) 7) The plate was transferred to the CO2 incubator and incubated for 3 to 4 days.
# (§11) 8) MTT (5 mg/ml in PBS) (10 μl) was added to the 1st to the 12th rows of the plate and incubated in the CO2 incubator at 37° C. for 4 hours.
# (§12) 9) A reaction stop solution (0.04N HCl in isopropanol) (150 μl) was added followed by mixing well and being allowed to stand at room temperature for about 2 hours.
# (§13) 10) Coloration of formazan which was a metabolite of the MTT dye was measured using a microplate reader. The measurement wavelength was 574 nm and the reference wavelength was 655 nm. The 10th and the 11th rows of the plate were 100% controls and the 12th row was a 0% control.
# (§14) As an index for the sensitivity of highly gene-expressing cells and the parental cell line to various drugs, each of the IC40 values thereof was specified and ratios of the IC40 values were calculated. […] After that, logarithmic values of ratios of IC40 values were calculated from each gene.
# [2] = tested on: NIH3T3 cells overexpressing Cip-1; test: MTT cell viability, Cip-1 overexpressing cells vs parental line; conditions: Cip-1 high-expressing cells / parental cell line, 3 to 4 days
# Procedure: as §1, §2, §3, §4, §5, §6, §7, §8, §9, §10, §11, §12, §13, §14
# [3] = tested on: NIH3T3 cells overexpressing RhoA-DN; test: MTT cell viability, RhoA-DN overexpressing cells vs parental line; conditions: RhoA-DN high-expressing cells / parental cell line, 3 to 4 days
# Procedure: as §1, §2, §3, §4, §5, §6, §7, §8, §9, §10, §11, §12, §13, §14
# [4] = tested on: NIH3T3 cells overexpressing CaMKIIa-Active; test: MTT cell viability, CaMKIIa-Active overexpressing cells vs parental line; conditions: CaMKIIa-Active high-expressing cells / parental cell line, 3 to 4 days
# Procedure: as §1, §2, §3, §4, §5, §6, §7, §8, §9, §10, §11, §12, §13
# As an index for the sensitivity of highly gene-expressing cells and the parental cell line to various drugs, each of the IC40 values thereof was specified and ratios of the IC40 values were calculated. FIG. 2 and FIG. 3 are the examples where ratios of IC40 values were calculated from a curve showing the dependency on the concentration of the chemical versus the viability. After that, logarithmic values of ratios of IC40 values were calculated from each gene.
# [5] = tested on: NIH3T3 cells overexpressing C/EBPa; test: MTT cell viability, C/EBPa overexpressing cells vs parental line; conditions: C/EBPa high-expressing cells / parental cell line, 3 to 4 days
# Procedure: as §1, §2, §3, §4, §5, §6, §7, §8, §9, §10, §11, §12, §13, §14
# [6] = tested on: NIH3T3 cells overexpressing C/EBPb; test: MTT cell viability, C/EBPb overexpressing cells vs parental line; conditions: C/EBPb high-expressing cells / parental cell line, 3 to 4 days
# Procedure: as §1, §2, §3, §4, §5, §6, §7, §8, §9, §10, §11, §12, §13, §14
# [7] = tested on: NIH3T3 cells overexpressing T.Tn; test: MTT cell viability, T.Tn overexpressing cells vs parental line; conditions: T.Tn high-expressing cells / parental cell line, 3 to 4 days
# Procedure: as §1, §2, §3, §4, §5, §6, §7, §8, §9, §10, §11, §12, §13, §14
compound,measurement,setting,value
"CCCC[C@@H](C)/C=C(C)/C=C(\C)C(=O)NC1=C[C@@](O)(/C=C/C=C/C=C/C(=O)NC2=C(O)CCC2=O)[C@@H]2O[C@@H]2C1=O [Manumycin, manumycin]",logarithmic value of ratio of IC40 values,[1],0.12
same,logarithmic value of ratio of IC40 values,[2],0.12
same,logarithmic value of ratio of IC40 values,[3],−0.13
same,logarithmic value of ratio of IC40 values,[4],0.03
same,logarithmic value of ratio of IC40 values,[5],0.00
same,logarithmic value of ratio of IC40 values,[6],0.47
same,logarithmic value of ratio of IC40 values,[7],0.28
ICE inhibitor-III [ICEin-3],logarithmic value of ratio of IC40 values,[1],0.23
same,logarithmic value of ratio of IC40 values,[2],0.08
same,logarithmic value of ratio of IC40 values,[3],0.00
same,logarithmic value of ratio of IC40 values,[4],0.22
same,logarithmic value of ratio of IC40 values,[5],−0.46
same,logarithmic value of ratio of IC40 values,[6],0.35
same,logarithmic value of ratio of IC40 values,[7],0.30
"CO[C@H]1[C@@H](OC)C[C@H](C)[C@@H](OC)C2=CC(=O)C=C(NC(=O)/C(C)=C/C=C\[C@H](OC)[C@@H](OC(N)=O)/C(C)=C/[C@@H]1C)C2=O [HMA, herbimycin A]",logarithmic value of ratio of IC40 values,[1],−0.22
same,logarithmic value of ratio of IC40 values,[2],−0.30
same,logarithmic value of ratio of IC40 values,[3],−0.10
same,logarithmic value of ratio of IC40 values,[4],0.51
same,logarithmic value of ratio of IC40 values,[5],0.00
same,logarithmic value of ratio of IC40 values,[6],0.45
same,logarithmic value of ratio of IC40 values,[7],0.00
CC(=O)OCOC(=O)CN(CC(=O)OCOC(C)=O)c1ccccc1OCCOc1ccccc1N(CC(=O)OCOC(C)=O)CC(=O)OCOC(C)=O [BAPTA-AM],logarithmic value of ratio of IC40 values,[1],0.00
same,logarithmic value of ratio of IC40 values,[2],0.00
same,logarithmic value of ratio of IC40 values,[3],0.09
same,logarithmic value of ratio of IC40 values,[4],0.18
same,logarithmic value of ratio of IC40 values,[5],−0.62
same,logarithmic value of ratio of IC40 values,[6],0.81
same,logarithmic value of ratio of IC40 values,[7],0.11
"O=[As]O [NaAsO2, sodium arsenite]",logarithmic value of ratio of IC40 values,[1],0.20
same,logarithmic value of ratio of IC40 values,[2],0.30
same,logarithmic value of ratio of IC40 values,[3],0.00
same,logarithmic value of ratio of IC40 values,[4],0.02
same,logarithmic value of ratio of IC40 values,[5],−0.40
same,logarithmic value of ratio of IC40 values,[6],0.41
same,logarithmic value of ratio of IC40 values,[7],−0.05
CNc1ccc2oc(C[C@H]3O[C@@]4(CC[C@H]3C)O[C@H]([C@H](C)C(=O)c3ccc[nH]3)[C@H](C)C[C@H]4C)nc2c1C(=O)O [A23187],logarithmic value of ratio of IC40 values,[1],0.30
same,logarithmic value of ratio of IC40 values,[2],0.04
same,logarithmic value of ratio of IC40 values,[3],0.03
same,logarithmic value of ratio of IC40 values,[4],0.18
same,logarithmic value of ratio of IC40 values,[5],0.00
same,logarithmic value of ratio of IC40 values,[6],0.25
same,logarithmic value of ratio of IC40 values,[7],−0.22
"C=C1[C@@H](O)[C@@H]2O[C@]3(CC[C@H](/C=C/[C@@H](C)[C@@H]4CC(C)=C[C@@]5(O[C@H](C[C@@](C)(O)C(=O)O)CC[C@H]5O)O4)O3)CC[C@H]2O[C@@H]1[C@@H](O)C[C@H](C)[C@H]1O[C@@]2(CCCCO2)CC[C@H]1C [OA, okadaic acid]",logarithmic value of ratio of IC40 values,[1],−0.05
same,logarithmic value of ratio of IC40 values,[2],−0.15
same,logarithmic value of ratio of IC40 values,[3],0.00
same,logarithmic value of ratio of IC40 values,[4],0.14
same,logarithmic value of ratio of IC40 values,[5],0.12
same,logarithmic value of ratio of IC40 values,[6],0.21
same,logarithmic value of ratio of IC40 values,[7],−0.16
CCCC[C@@H](C=O)NC(=O)[C@H](CC(C)C)NC(=O)[C@H](CC(C)C)NC(C)=O [ALLN] (Ac-Leu-Leu-[Nle]-aldehyde),logarithmic value of ratio of IC40 values,[1],0.18
same,logarithmic value of ratio of IC40 values,[2],0.18
same,logarithmic value of ratio of IC40 values,[3],0.00
same,logarithmic value of ratio of IC40 values,[4],0.20
same,logarithmic value of ratio of IC40 values,[5],0.00
same,logarithmic value of ratio of IC40 values,[6],0.31
same,logarithmic value of ratio of IC40 values,[7],0.48
